# Measurements from US20140227201A1, “Antimicrobial Gel Formulations” (NovaBay Pharmaceuticals, Inc., priority 2013, published 2014).
# Assay: Amount of compound an AA-1 polymer formulation can hold
# Type: physicochemical
# Conditions: by weight
# Source text: The formulations may be made by mixing the N-halogenated or N,N-dihalogenated amine compound with the polymer using water. Water/oil emulsions, hydrating agents, wetting agents, surfactants, and the like may also be used. Concentrations of N-halogenated or N,N-dihalogenated amine compound may range from about 0.01% to about 5.0% (by weight). Concentrations of polymer may be from about 0.01% to about 10% (by weight) in water. For example, in certain implementations, the concentration of N-halogenated or N,N-dihalogenated compounds may range from about 0.1% to about 2.0% (by weight). Higher concentrations of polymer may be required to formulate higher concentrations of the N-halogenated or N,N-dihalogenated amine compound. For example, a 1% AA-1 formulation can hold up to about 2% N,N-dichloro-2,2-dimethyltaurine, whereas a 2% AA-1 formulation can hold up to about 3.5% of the same compound. These ratios may differ as different polymers and N-halogenated or N,N-dihalogenated amine compound are combined in a given formulation.
smiles,measurement,setting,value
"CC(C)(CS(=O)(=O)O)N(Cl)Cl [NVC-422, N,N-dichloro-2,2-dimethyltaurine]",amount of compound the formulation can hold,1% AA-1 formulation,about 2%
same,amount of compound the formulation can hold,2% AA-1 formulation,about 3.5%
